The text below walks through data of US8513202B2, “Crystalline form of 1-(β-D-glucopyranosyl)-4-methyl-3-[5-(4-fluorophenyl)-2-thienylmethyl]benzene hemihydrate” (Mitsubishi Tanabe Pharma Corporation, priority 2006, dated 2013).

Molecules are shown by their SMILES.

This data set in a line: stability of the crystalline form compared with the amorphous form. It is filed as physicochemical. The note with it: compared with the amorphous form of the compound of formula (I); test conditions not given.

For the compound `Cc1ccc([C@@H]2O[C@H](CO)[C@@H](O)[C@H](O)[C@H]2O)cc1Cc1ccc(-c2ccc(F)cc2)s1` [1-(β-D-glucopyranosyl)-4-methyl-3-[5-(4-fluorophenyl)-2-thienylmethyl]benzene hemihydrate], the stability result was “more stable than the amorphous form”.
